This test has as its target T1, human RORgT (Homo sapiens, UniProt P51449).
T1 construct: expressed in transfected cells
T1 sequence (P51449 267-516): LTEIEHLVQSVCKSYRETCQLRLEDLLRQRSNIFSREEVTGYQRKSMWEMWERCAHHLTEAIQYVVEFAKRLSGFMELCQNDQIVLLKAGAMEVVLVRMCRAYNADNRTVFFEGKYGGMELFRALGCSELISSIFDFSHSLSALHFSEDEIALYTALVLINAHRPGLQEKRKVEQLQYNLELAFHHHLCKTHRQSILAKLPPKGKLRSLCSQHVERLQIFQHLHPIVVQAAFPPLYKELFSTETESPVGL
In words: RORgT Gal4 Luciferase Reporter Gene Assay. Format: cell-based. Particulars: engineered Jurkat cells overexpressing RORgT (LBD or full length) fused with Gal4 Luc reporter; 18 hours at 37° C.; luminescence. Put shortly:
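Jurkat cells expressing Gal4 Luc with either RORgT LBD (aa267-516) or full-length human RORgT, 10,000 cells/well, treated with compound (40 µM to 0.67 nM final, 3-fold dilutions) for 18 h at 37° C. Steady-Glo luminescence read; inhibition of constitutive activity as % signal-window reduction relative to a control compound.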
Background: In a reporter assay the amount or activity of a reporter protein is the signal.

The term EC50 denotes the concentration that produces a half-maximal response.

`O=C(C1CCS(=O)(=O)CC1)N1CC[C@@]2(S(=O)(=O)c3ccc(F)cc3)c3ccc(Cc4c(F)cccc4Cl)cc3CC[C@@H]12` [Example 32, 4-[(3aR,9bR)-7-[(2-chloro-6-fluorophenyl)methyl]-9b-(4-fluorobenzenesulfonyl)-1H,2H,3H,3aH,4H,5H,9bH-benzo[e]indole-3-carbonyl]-1λ^6-thiane-1,1-dione] yielded an EC50 of 1.8 nM. This counts as single-digit nanomolar.

In the case of `O=C(C1CCS(=O)(=O)CC1)N1CC[C@@]2(S(=O)(=O)c3ccc(F)cc3)c3ccc(COc4c(F)cccc4Cl)cc3CC[C@@H]12` [Example 33, 4-[(3aR,9bR)-7-[(2-chloro-6-fluorophenoxy)methyl]-9b-(4-fluorobenzenesulfonyl)-1H,2H,3H,3aH,4H,5H,9bH-benzo[e]indole-3-carbonyl]-1λ^6-thiane-1,1-dione], the EC50 was determined as 10 nM.

As to `O=C(O)[C@H]1CC[C@H](C(=O)N2CC[C@@]3(S(=O)(=O)c4ccc(F)cc4)c4ccc(Cc5ccccc5)cc4CC[C@@H]23)CC1` [Example 34, (1r,4r)-4-[(3aR,9bR)-7-benzyl-9b-(4-fluorobenzenesulfonyl)-1H,2H,3H,3aH,4H,5H,9bH-benzo[e]indole-3-carbonyl]cyclohexane-1-carboxylic acid], the EC50 worked out at 10 nM. This counts as double-digit nanomolar.

`O=C(C1CCS(=O)(=O)CC1)N1CC[C@@]2(S(=O)(=O)c3ccc(F)cc3)c3ccc(Oc4ccccc4)cc3CC[C@@H]12` [Example 36] registered an EC50 of 4.1 nM.

Turning to `O=C(O)[C@H]1CC[C@H](C(=O)N2CC[C@@]3(S(=O)(=O)c4ccc(F)cc4)c4ccc(Oc5c(F)cccc5Cl)cc4CC[C@@H]23)CC1` [Example 37, (1r,4r)-4-[(3aR,9bR)-7-(2-chloro-6-fluorophenoxy)-9b-(4-fluorobenzenesulfonyl)-1H,2H,3H,3aH,4H,5H,9bH-benzo[e]indole-3-carbonyl]cyclohexane-1-carboxylic acid], the EC50 was found to be 3.3 nM.

Regarding `O=C(C1CCS(=O)(=O)CC1)N1CC[C@@]2(S(=O)(=O)c3ccc(F)cc3)c3ccc(Oc4c(F)cccc4Cl)cc3CC[C@@H]12` [Example 38, 4-[(3aR,9bR)-7-(2-chloro-6-fluorophenoxy)-9b-(4-fluorobenzenesulfonyl)-1H,2H,3H,3aH,4H,5H,9bH-benzo[e]indole-3-carbonyl]-1λ^6-thiane-1,1-dione], the EC50 was 1.1 nM.

In turn, `O=C(C1CCS(=O)(=O)CC1)N1CC[C@@]2(S(=O)(=O)c3ccc(F)cc3)c3ccc(Oc4c(F)cccc4C(F)(F)F)cc3CC[C@@H]12` [Example 39, 4-[(3aR,9bR)-7-[2-fluoro-6-(trifluoromethyl)phenoxy]-9b-(4-fluorobenzenesulfonyl)-1H,2H,3H,3aH,4H,5H,9bH-benzo[e]indole-3-carbonyl]-1λ^6-thiane-1,1-dione] yielded an EC50 of 2.7 nM.

`O=C(O)[C@H]1CC[C@H](C(=O)N2CC[C@@]3(S(=O)(=O)c4ccc(F)cc4)c4ccc(Cc5ccc(F)cc5)cc4CC[C@@H]23)CC1` [Example 40, (1r,4r)-4-[(3aR,9bR)-9b-(4-fluorobenzenesulfonyl)-7-[(4-fluorophenyl)methyl]-1H,2H,3H,3aH,4H,5H,9bH-benzo[e]indole-3-carbonyl]cyclohexane-1-carboxylic acid] gave an EC50 of 5.2 nM. Against the preceding compound, the EC50 is about 1.9-fold higher.

For `O=C(C1CCS(=O)(=O)CC1)N1CC[C@@]2(S(=O)(=O)c3ccc(F)cc3)c3ccc(Cc4ccc(F)cc4)cc3CC[C@@H]12` [Example 41, 4-[(3aR,9bR)-9b-(4-fluorobenzenesulfonyl)-7-[(4-fluorophenyl)methyl]-1H,2H,3H,3aH,4H,5H,9bH-benzo[e]indole-3-carbonyl]-1λ^6-thiane-1,1-dione], the response was half-maximal at 1.2 nM (EC50).

Compound `O=C(C1CCS(=O)(=O)CC1)N1CC[C@@]2(S(=O)(=O)c3ccc(F)cc3)c3ccc(Cc4ccc(Cl)cc4)cc3CC[C@@H]12` [Example 42, 4-[(3aR,9bR)-7-[(4-chlorophenyl)methyl]-9b-(4-fluorobenzenesulfonyl)-1H,2H,3H,3aH,4H,5H,9bH-benzo[e]indole-3-carbonyl]-1λ^6-thiane-1,1-dione] gave an EC50 of 1.8 nM.

As for `Cc1ccccc1Cc1ccc2c(c1)CC[C@H]1N(C(=O)[C@H]3CC[C@H](C(=O)O)CC3)CC[C@@]21S(=O)(=O)c1ccc(F)cc1` [Example 43, (1r,4r)-4-[(3aR,9bR)-9b-(4-fluorobenzenesulfonyl)-7-[(2-methylphenyl)methyl]-1H,2H,3H,3aH,4H,5H,9bH-benzo[e]indole-3-carbonyl]cyclohexane-1-carboxylic acid], the EC50 came out at 2.7 nM.

`Cc1ccccc1Cc1ccc2c(c1)CC[C@H]1N(C(=O)C3CCS(=O)(=O)CC3)CC[C@@]21S(=O)(=O)c1ccc(F)cc1` [Example 44, 4-[(3aR,9bR)-9b-(4-fluorobenzenesulfonyl)-7-[(2-methylphenyl)methyl]-1H,2H,3H,3aH,4H,5H,9bH-benzo[e]indole-3-carbonyl]-1λ^6-thiane-1,1-dione] had an EC50 of 1.9 nM.

The compound `CC1(CN2CC[C@@]3(S(=O)(=O)c4ccc(F)cc4)c4ccc(OCc5c(F)cccc5C(F)(F)F)cc4CC[C@@H]23)CCNCC1` [Example 45, 4-{ [(3aR,9bR)-7-{ [2-fluoro-6-(trifluoromethyl)phenyl]methoxy} -9b-(4-fluorobenzenesulfonyl)-1H,2H,3H,3aH,4H,5H,9bH-benzo[e]indol-3-yl]methyl}-4-methylpiperidine] showed an EC50 of 306 nM.

In the case of `Cc1ccccc1Cc1ccc2c(c1)CC[C@H]1N(C(=O)C3(C)CCS(=O)(=O)CC3)CC[C@@]21S(=O)(=O)c1ccc(F)cc1` [Example 46, 4-[(3aR,9bR)-9b-(4-fluorobenzenesulfonyl)-7-[(2-methylphenyl)methyl]-1H,2H,3H,3aH,4H,5H,9bH-benzo[e]indole-3-carbonyl]-4-methyl-1λ^6-thiane-1,1-dione], the response was half-maximal at 2.7 nM (EC50).

`Cc1ccccc1Cc1ccc2c(c1)CC[C@H]1N(C(=O)CC3CCS(=O)(=O)C3)CC[C@@]21S(=O)(=O)c1ccc(F)cc1` (stereo partly drawn) [Example 47, 3-{2-[(3aR,9bR)-9b-(4-fluorobenzenesulfonyl)-7-[(2-methylphenyl)methyl]-1H,2H,3H,3aH,4H,5H,9bH-benzo[e]indol-3-yl]-2-oxoethyl}-1λ^6-thiolane-1,1-dione] displayed an EC50 of 4.4 nM.

For the compound `Cc1ccccc1Oc1ccc2c(c1)CC[C@H]1N(C(=O)C3(C)CCS(=O)(=O)CC3)CC[C@@]21S(=O)(=O)c1ccc(F)cc1` [Example 48, 4-[(3aR,9bR)-9b-(4-fluorobenzenesulfonyl)-7-(2-methylphenoxy)-1H,2H,3H,3aH,4H,5H,9bH-benzo[e]indole-3-carbonyl]-4-methyl-1λ^6-thiane-1,1-dione], a half-maximal response (EC50) required 7.5 nM. This EC50 lies about 1.7-fold higher than the previous one.

In turn, `Cc1ccccc1Oc1ccc2c(c1)CC[C@H]1N(C(=O)C3CCS(=O)(=O)CC3)CC[C@@]21S(=O)(=O)c1ccc(F)cc1` [Example 49, 4-[(3aR,9bR)-9b-(4-fluorobenzenesulfonyl)-7-(2-methylphenoxy)-1H,2H,3H,3aH,4H,5H,9bH-benzo[e]indole-3-carbonyl]-1λ^6-thiane-1,1-dione] displayed an EC50 of 1.8 nM.

Regarding `Cc1ccccc1Oc1ccc2c(c1)CC[C@H]1N(C(=O)[C@]3(C)CC[C@@H](C(=O)O)CC3)CC[C@@]21S(=O)(=O)c1ccc(F)cc1` [Example 50, (1r,4r)-4-[(3aR,9bR)-9b-(4-fluorobenzenesulfonyl)-7-(2-methylphenoxy)-1H,2H,3H,3aH,4H,5H,9bH-benzo[e]indole-3-carbonyl]-4-methylcyclohexane-1-carboxylic acid], a half-maximal response (EC50) required 6.8 nM. This EC50 is about 3.8-fold higher than that of the compound before.

Values taken from patent publication US20230295087A1, “AGONISTS OF ROR GAMMAt” (BRISTOL-MYERS SQUIBB COMPANY, priority 2019, published 2023).
